According to ChEMBL document CHEMBL1141231, “Discovery and development of a new class of potent, selective, orally active oxytocin receptor antagonists” (J Med Chem, 2005):

What was measured:
Vasopressin V1a receptor [1] = target: T1, Vasopressin V1a receptor (Homo sapiens, UniProt P37288); settings: HEK293-EBNA, at 10 µM
Target sequence in this assay (P37288 whole entry, looked up): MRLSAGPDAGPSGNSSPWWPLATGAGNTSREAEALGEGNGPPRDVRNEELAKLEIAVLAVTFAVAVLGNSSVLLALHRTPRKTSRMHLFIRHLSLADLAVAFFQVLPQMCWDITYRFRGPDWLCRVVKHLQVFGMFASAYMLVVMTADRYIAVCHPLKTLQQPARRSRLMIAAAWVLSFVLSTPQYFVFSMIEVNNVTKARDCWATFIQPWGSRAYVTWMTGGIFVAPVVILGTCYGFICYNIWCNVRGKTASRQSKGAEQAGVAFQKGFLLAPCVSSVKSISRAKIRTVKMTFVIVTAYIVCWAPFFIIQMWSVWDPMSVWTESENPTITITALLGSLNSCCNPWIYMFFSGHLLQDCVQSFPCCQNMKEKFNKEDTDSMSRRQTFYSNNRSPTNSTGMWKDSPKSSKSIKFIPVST
Description: Displacement of [125I]LVA antagonist from human vasopressin 1a receptor expressed in HEK293-EBNA cells at 10 uM

Oxytocin receptor = target: T2, Oxytocin receptor (Homo sapiens, UniProt P30559); assay: biochemical; assay type: cell-based, HEK293-EBNA
T2 sequence (P30559 whole entry): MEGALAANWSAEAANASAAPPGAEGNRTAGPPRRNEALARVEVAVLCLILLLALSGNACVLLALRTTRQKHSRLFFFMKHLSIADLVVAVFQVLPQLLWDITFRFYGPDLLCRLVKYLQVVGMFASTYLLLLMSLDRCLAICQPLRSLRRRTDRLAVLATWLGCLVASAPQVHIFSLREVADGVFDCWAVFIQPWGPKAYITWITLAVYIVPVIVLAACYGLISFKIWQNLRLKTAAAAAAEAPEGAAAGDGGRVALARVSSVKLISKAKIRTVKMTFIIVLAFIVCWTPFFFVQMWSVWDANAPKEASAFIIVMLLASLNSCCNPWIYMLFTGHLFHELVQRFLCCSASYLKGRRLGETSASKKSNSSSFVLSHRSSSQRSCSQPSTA
Description: Displacement of [125I]OVTA antagonist from human oxytocin receptor expressed in HEK293-EBNA cells

Homo sapiens = species on record: Homo sapiens; assay: Selectivity for human vasopressin V1a receptor over human oxytocin receptor
Vasopressin V1a receptor [2] = target: T1, Vasopressin V1a receptor; assay: Displacement of [125I]LVA antagonist from human vasopressin 1a receptor expressed in HEK293-EBNA cells; assay type: cell-based
Target sequence in this assay (P37288 whole entry): as the sequence (P37288 whole entry, looked up) above

[3] = Solubility in saline; assay type: physicochemical
[4] = Solubility in aqueous medium; assay type: physicochemical
[5] = aqueous medium, read-out: Solubility

Row | SMILES | Ki (Oxytocin receptor) [nM] | Ratio Ki (Homo sapiens) | Ki (Vasopressin V1a receptor [2]) [nM] | further results
1 | COc1ccc(S(=O)(=O)N(CC(=O)Nc2cccc(Cl)c2C)c2ccc(C)cc2)cc1OC | 620 | – | – | inhibition (Vasopressin V1a receptor [1]): < 50%
2 | COc1ccc(-c2ccc(S(=O)(=O)N(CC(=O)/N=N/c3c(O)[nH]c4ccccc34)c3ccc(C)cc3)cc2)cc1 | > 214 | > 47 | > 10000 | –
3 | CCOc1ccc(S(=O)(=O)N(CC(=O)N/N=C/c2ccccc2O)c2ccc(C)cc2)cc1 | 60 | 54 | 3210 | –
4 | CCCOc1ccc(S(=O)(=O)N(CC(=O)N/N=C2\C(=O)Nc3ccccc32)c2ccc(C)cc2)cc1 | 21 | 175 | 3730 | –
5 | C/C(=N\NC(=O)CN(c1ccccc1)S(=O)(=O)c1ccccc1)c1ccccc1O | 237 | – | > 10000 | –
6 | COc1ccc(N(CC(=O)N2CCc3ccccc3C2)S(=O)(=O)c2ccccc2)cc1 | 160 | – | 115 | –
7 | CCOc1ccc(S(=O)(=O)N(CCC(=O)/N=N/c2c(O)[nH]c3ccccc23)c2ccc(C)cc2)cc1 | > 10000 | – | > 10000 | –
8 | COc1ccc(S(=O)(=O)N(CC(=O)/N=N/c2c(O)[nH]c3ccccc23)c2ccc(Cl)cc2)cc1OC | 18 | 33 | 596 | –
9 | O=C(CN(c1ccc(Cl)cc1)S(=O)(=O)c1ccccc1)N/N=C/c1ccccc1O | 67 | – | – | inhibition (Vasopressin V1a receptor [1]): < 50%
10 | CNCCCC12CCC(c3ccccc31)c1ccccc12.Cl [MAPROTILINE HYDROCHLORIDE] | – | – | – | solubility [3]: 2 µg/mL; solubility ([4]; buffer): 580 µg/mL
11 | CCOc1ccc(S(=O)(=O)N(CC(=O)N/N=C/c2ccccc2O)c2ccc(Cl)cc2)cc1 | 15 | 43 | 650 | –
12 | CCCOc1ccc(S(=O)(=O)N(CC(=O)N/N=C2\C(=O)Nc3ccccc32)c2ccc(Cl)cc2)cc1 | 10 | 140 | 1390 | –
13 | Cc1ccc(N(CC(=O)/N=N/c2c(O)[nH]c3ccccc23)S(=O)(=O)c2ccc3ccccc3c2)cc1 | 239 | > 42 | > 10000 | –
14 | CCOc1ccc(S(=O)(=O)N(CC(=O)N2Cc3ccccc3C2C(N)=O)c2ccc(OC)cc2)cc1 (stereo not drawn) | 770 | 2.1 | 1600 | –
15 | Cc1ccc(N(CC(=O)/N=N/c2c(O)[nH]c3ccccc23)S(=O)(=O)c2ccc(-c3ccccc3)cc2)cc1 | 104 | > 96 | > 10000 | –
16 | CN(C)CCCOc1ccc(S(=O)(=O)N(CC(=O)/N=N/c2c(O)[nH]c3c(C(=O)O)cccc23)c2ccc(Cl)cc2)cc1 | > 10000 | – | > 10000 | –
17 | C/C(=N\NC(=O)CN(c1cccc(Cl)c1)S(=O)(=O)c1ccccc1)c1ccccc1O | 4900 | – | 600 | –
18 | CCOc1ccc(S(=O)(=O)N(CC(=O)N/N=C/c2ncc[nH]2)c2ccc(Cl)cc2)cc1 | > 10000 | – | > 10000 | –
19 | CCC(C)(C)c1ccc(S(=O)(=O)N(CC(=O)N/N=C2\C(=O)Nc3ccccc32)c2ccc(Cl)cc2)cc1 | 1750 | – | > 10000 | –
20 | CCOc1ccc(S(=O)(=O)N(CC(=O)/N=N/c2c(O)[nH]c3ccc([N+](=O)[O-])cc23)c2ccccc2)cc1 | > 10000 | – | > 10000 | –

Row | SMILES | Ki (Oxytocin receptor) [nM] | Ratio Ki (Homo sapiens) | Ki (Vasopressin V1a receptor [2]) [nM] | further results
21 | CCOc1ccc(S(=O)(=O)N(CC(=O)N2Cc3ccccc3CC2C(N)=O)c2ccc(OC)cc2)cc1 (stereo not drawn) | 320 | – | 570 | Ratio ki (Homo sapiens): 1.8
22 | CCOc1ccc(S(=O)(=O)N(CC(=O)N/N=C/c2ccccn2)c2ccc(Cl)cc2)cc1 | 2750 | 0.67 | 1860 | –
23 | Cc1ccc(N(CC(=O)N2CCc3ccccc3C2)S(=O)(=O)c2ccccc2)cc1 | – | – | 325 | –
24 | CCOc1ccc(S(=O)(=O)N(CC(=O)N/N=C/c2ccccc2NC(C)=O)c2ccc(C)cc2)cc1 | > 10000 | – | > 10000 | –
25 | CCOc1ccc(S(=O)(=O)N(CC(=O)N/N=C(\C)c2ccc(O)cc2O)c2ccc(C)cc2)cc1 | > 10000 | – | > 10000 | –
26 | CN(C)CCCOc1ccc(S(=O)(=O)N(CC(=O)N/N=C2\C(=O)N(CC(N)=O)c3ccccc32)c2ccc(Cl)cc2)cc1 | 322 | 3 | 1100 | –
27 | COc1ccc(S(=O)(=O)N(CC(=O)N/N=C2/C(=O)Nc3ccccc32)c2ccc(C)cc2)cc1 | 20 | – | 437 | –
28 | CCOc1ccc(S(=O)(=O)N(CC(=O)N/N=C/c2ccccc2N)c2ccc(C)cc2)cc1 | > 10000 | – | > 10000 | –
29 | Cl.O=C(CN(c1ccc(Cl)cc1)S(=O)(=O)c1ccc(OCCN2CCOCC2)cc1)/N=N/c1c(O)[nH]c2ccccc12 | – | – | – | solubility [3]: 2.5 µg/mL; solubility [4, 5]: 127 µg/mL
30 | CN(C)CCCOc1ccc(S(=O)(=O)N(CC(=O)/N=N/c2c(O)[nH]c3ccncc23)c2ccc(Cl)cc2)cc1.O=C(O)C(F)(F)F | – | – | – | solubility [3]: 10000 µg/mL; solubility [4, 5]: 20000 µg/mL
31 | CCOc1ccc(S(=O)(=O)N(CC(=O)/N=N/c2c(O)[nH]c3ccccc23)c2ccccc2)cc1 | 36 | > 275 | > 10000 | –
32 | CCOc1ccc(S(=O)(=O)N(CC(=O)N/N=C(\C)c2c(O)ccc3ccccc23)c2ccc(C)cc2)cc1 | > 10000 | – | > 10000 | –
33 | CCOc1ccc(S(=O)(=O)N(CC(=O)/N=N/c2c(O)[nH]c3ccc(I)cc23)c2ccccc2)cc1 | > 10000 | – | > 10000 | –
34 | Cc1ccc(N(CC(=O)N/N=C/c2ccccc2O)S(=O)(=O)c2ccccc2)cc1 | 67 | – | – | inhibition (Vasopressin V1a receptor [1]): < 50%
35 | Cc1ccc(N(CC(=O)N/N=C2\C(=O)Nc3ccccc32)S(=O)(=O)c2cccc3ccccc23)cc1 | – | > 58 | – | –
36 | CCOc1ccc(S(=O)(=O)N(CC(=O)/N=N/c2c(O)[nH]c3ccc(S(=O)(=O)O)cc23)c2ccc(C)cc2)cc1 | > 10000 | – | > 10000 | –
37 | CN(C)CCCNC(=O)CCc1ccc(S(=O)(=O)N(CC(=O)/N=N/c2c(O)[nH]c3ccccc23)c2ccc(Cl)cc2)cc1.O=C(O)C(F)(F)F | – | – | – | solubility [3]: < 1 µg/mL; solubility [4, 5]: 20000 µg/mL
38 | CCOc1ccc(S(=O)(=O)N(CC(=O)N2Cc3ccccc3CC2CC(N)=O)c2ccc(C)cc2)cc1 (stereo not drawn) | – | 3.6 | 1800 | –
39 | CCCc1ccc(S(=O)(=O)N(CC(=O)N/N=C2\C(=O)Nc3ccccc32)c2ccc(Cl)cc2)cc1 | 36 | 60 | 2120 | –
40 | CN(C)CCCOc1ccc(S(=O)(=O)N(CC(=O)/N=N/c2c(O)[nH]c3ccccc23)c2ccc(Cl)cc2)cc1.Cl | – | – | – | solubility [3]: 7 µg/mL; solubility [4, 5]: 180 µg/mL

Row | SMILES | Ki (Oxytocin receptor) [nM] | Ratio Ki (Homo sapiens) | Ki (Vasopressin V1a receptor [2]) [nM] | further results
41 | CC(C)(C)c1ccc(S(=O)(=O)N(CC(=O)N/N=C2/C(=O)Nc3ccccc32)c2ccc(Cl)cc2)cc1 | 61 | 80 | 4940 | –
42 | Cc1ccc(N(CC(=O)N/N=C2\C(=O)Nc3ccccc32)S(=O)(=O)c2ccc(C#N)cc2)cc1 | 111 | 62 | 6880 | –
43 | Cc1c(Cl)cccc1NC(=O)CN(c1ccc(Cl)cc1)S(=O)(=O)c1ccccc1 | 160 | – | > 10000 | –
44 | O=C(CN(c1ccc(Cl)cc1)S(=O)(=O)c1cccs1)N/N=C1\C(=O)Nc2ccccc21 | 37 | 14 | 510 | –
45 | COc1ccc(N(CC(=O)Nc2cccc(Cl)c2C)S(=O)(=O)c2ccccc2)cc1 | 100 | – | 300 | –
46 | COc1ccc(N(CC(=O)Nc2ccc(Cl)cc2C)S(=O)(=O)c2ccccc2)cc1 | 800 | – | 70 | –
47 | O=C(CN(c1ccc(Cl)cc1)S(=O)(=O)c1ccccc1)N/N=C1\C(=O)Nc2ccccc21 | 8.7 | 70 | 611 | –
48 | Cc1ccc(N(CC(=O)Nc2cccc(Cl)c2C)S(=O)(=O)c2ccccc2)cc1 | 93 | – | > 10000 | –
49 | CCCCOc1ccc(S(=O)(=O)N(CC(=O)N/N=C2\C(=O)Nc3ccccc32)c2ccc(Cl)cc2)cc1 | 18 | 230 | 3980 | –
50 | CCOc1ccc(S(=O)(=O)N(CC(=O)N/N=C/c2ccc(N(CC)CC)cc2O)c2ccc(C)cc2)cc1 | > 10000 | – | > 10000 | –
51 | CCOc1ccc(S(=O)(=O)N(CC(=O)N/N=C(\C)c2ccc3ccccc3c2O)c2ccc(C)cc2)cc1 | > 10000 | – | > 10000 | –
52 | Cc1ccc(N(CC(=O)NN=C2C(=O)Nc3ccccc32)S(=O)(=O)c2cccc3ccccc23)cc1 | 174 | – | > 10000 | –
53 | O=C(CN(c1ccccc1)S(=O)(=O)c1ccccc1)N/N=C1\C(=O)Nc2ccccc21 | 90 | – | – | inhibition (Vasopressin V1a receptor [1]): < 50%
54 | COc1ccc(S(=O)(=O)N(CC(=O)N/N=C2\C(=O)Nc3ccccc32)c2ccc(C)cc2)cc1 | – | 22 | – | –
55 | CCOc1ccc(S(=O)(=O)N(CC(=O)N2Cc3ccccc3CC2CC(N)=O)c2ccc(OC)cc2)cc1 (stereo not drawn) | 510 | – | 1600 | Ratio ki (Homo sapiens): 3.1
56 | CCOc1ccc(S(=O)(=O)N(c2ccc(C)cc2)C(C)C(=O)N/N=C2\C(=O)Nc3ccccc32)cc1 (stereo not drawn) | 448 | – | > 10000 | –
57 | CCOc1ccc(N(CC(=O)Nc2cccc(Cl)c2C)S(=O)(=O)c2ccccc2)cc1 | > 10000 | – | > 10000 | –
58 | COC(=O)c1cccc2c1NC(=O)/C2=N\NC(=O)CN(c1ccc(Cl)cc1)S(=O)(=O)c1ccc(OCCCN(C)C)cc1 | – | 12 | 1290 | –
59 | CCOc1ccc(S(=O)(=O)N(CC(=O)N/N=C2\C(=O)Nc3ccccc32)c2ccc(Cl)cc2)cc1 | 3.9 | 120 | 471 | –
60 | CCOc1ccc(S(=O)(=O)N(c2ccc(C)cc2)C(CO)C(=O)N/N=C2\C(=O)Nc3ccccc32)cc1 (stereo not drawn) | 1380 | – | > 10000 | –
